Where two headings read alike, the source gives them in different places.
Columns and labels:
HeLa MKYP cells [1] = experiment: Human mitophagy assay (HeLa mKeima assay, FACS); assay type: cell-based; details: read-out: Mitophagy induction EC50
Experimental: Briefly, HeLa MKYP cells were plated at 10,000 cells/well in 96 well plates along with compounds at various concentrations. Following 16 hrs of incubation, cells were treated with 1 uM FCCP/oligomycin for 6 hours, then analyzed via FACS for the presence of mitochondria in lysosomes (as determined by an emissions spectrum shift from the pH-sensitive mtKeima tag).
Briefly, HeLa cells expressing a mitophagy indicator (mtKeima) protein were treated with […] of FCCP and Oligomycin followed by the specified dose of compound, then analyzed by FACS to quantify the percentage of cells undergoing mitophagy.

HeLa MKYP cells [2] = experiment: Cell death measured by DAPI staining, with 1 μM FCCP/oligomycin or no toxin (no FO); assay type: cell-based
Experimental: EP-0035985, EP-0037821, EP-0038098, and EP-0038099 in the presence of 1 μM FCCP/oligomycin or with no toxin (no FO) for 6 hrs. H2O2 treatment was performed as a control for cell death as measured by DAPI staining.
EP-0035985, EP-0038461, EP-0038463, and EP-0038503 in the presence of 1 μM FCCP/oligomycin or with no toxin (no FO) for 6.5 hrs. H2O2 treatment was performed as a control for cell death as measured by DAPI staining.
EP-0035985, EP-0038504, EP-0038508, and EP-0038521 in the presence of 1 μM FCCP/oligomycin or with no toxin (no FO) for 6.5 hrs. H2O2 treatment was performed as a control for cell death as measured by DAPI staining.
EP-0035985, EP-0038461, EP-0038463, EP-0038503, EP-0038504, EP-0038508, and EP-0038521 in the presence of 1 μM FCCP/oligomycin or with no toxin (no FO) for 6.5 hrs. H2O2 treatment was performed as a control for cell death as measured by DAPI staining.

SMILES | EC50 (HeLa MKYP cells [1]) [µM] | Highest safe dose (cytotoxicity; no FO; safe means DAPI+ <20%) (HeLa MKYP cells [2]) [µM] | Max % death with 1 μM FO (HeLa MKYP cells [2]) [%] | EC50 (HeLa MKYP cells [1]; Homo sapiens, HeLa) [µM]
Fc1ccc2c(c1)OC[C@H](N1C[C@H]3COC[C@@H]3C1)[C@H]2Nc1ncnc2[nH]c(C(F)(F)F)cc12 (single isomer, unassigned) [EP-0040563] | 1.05 | 25.0 | 9.7 | 
Fc1cccc2c1CC[C@H](N1C[C@H]3COC[C@H]3C1)[C@H]2Nc1ncnc2[nH]c(C3CC3)cc12 (single isomer, unassigned) [EP-0040576] |  | 25.0 | 21.2 | 2.79
CN1CCN([C@H]2CCc3ccccc3[C@@H]2Nc2ncnc3[nH]c(C(F)(F)F)cc23)CC1 (single isomer, unassigned) [EP-0040578] |  | 25.0 | 14.4 | 3.54
CN1CCN([C@@H]2CCc3ccccc3[C@H]2Nc2ncnc3[nH]c(C(F)(F)F)cc23)CC1 (single isomer, unassigned) [EP-0040579] |  | 25.0 | 20.3 | 9.02
FC(F)(F)c1cc2c(N[C@@H]3c4ccccc4CC[C@H]3C3CCOCC3)ncnc2[nH]1 (single isomer, unassigned) [EP-0040581] |  | 25.0 | 8.1 | 2.69
FC(F)(F)c1cc2c(N[C@H]3c4ccccc4OC[C@@H]3C3CCOCC3)ncnc2[nH]1 (single isomer, unassigned) [EP-0040699] |  | 25.0 | 3.7 | > 25
Fc1ccc2c(c1)CC[C@H](N1C[C@H]3COC[C@H]3C1)[C@H]2Nc1ncnc2[nH]c(C(F)(F)F)cc12 (single isomer, unassigned) [EP-0040720] |  | 25.0 | 12.1 | 6.25
OC1CC2(C1)CN([C@H]1COc3ccccc3[C@@H]1Nc1ncnc3[nH]c(C(F)(F)F)cc13)C2 (single isomer, unassigned) [EP-0040725] |  | 25.0 | 3.4 | > 25
Fc1ccc2c(c1)OC[C@H](N1C[C@H]3COC[C@@H]3C1)[C@H]2Nc1ncnc2[nH]c(C(F)(F)F)cc12 (single isomer, unassigned) [EP-0040747] | > 25 | 25.0 | 5.8 | 
Fc1ccc2c(c1)OC[C@H](N1C[C@@H]3COC[C@H]3C1)[C@H]2Nc1ncnc2[nH]c(C3CC3)cc12 (single isomer, unassigned) [EP-0040873] | > 25 | 25.0 | 4.3 | 
FC(F)(F)c1cc2c(N[C@H]3c4ccccc4OC[C@@H]3C3CCCOC3)ncnc2[nH]1 (single isomer, unassigned) [EP-0041002] |  | 25.0 | 4.5 | 6.18
FC(F)(F)c1cc2c(N[C@H]3c4ccc(Br)cc4OC[C@@H]3N3CCOCC3)ncnc2[nH]1 (single isomer, unassigned) [EP-0041021] |  | 25.0 | 13.2 | 3.38
COC[C@@H]1CCN([C@H]2COc3ccccc3[C@@H]2Nc2ncnc3[nH]c(C(F)(F)F)cc23)C1 (single isomer, unassigned) [EP-0041072] | > 25 | 25.0 | 8.0 | 
COC1CN([C@H]2COc3cc(F)ccc3[C@@H]2Nc2ncnc3[nH]c(C(F)(F)F)cc23)C1 (single isomer, unassigned) [EP-0041089] |  | 25.0 | 10.2 | 1.97
COC[C@H]1CCN([C@H]2COc3ccccc3[C@@H]2Nc2ncnc3[nH]c(C(F)(F)F)cc23)C1 (single isomer, unassigned) [EP-0041174] | 15.3 | 25.0 | 4.6 | 
[2H]C([2H])([2H])OC1CN([C@H]2COc3ccccc3[C@@H]2Nc2ncnc3[nH]c(C(F)(F)F)cc23)C1 (single isomer, unassigned) [EP-0041248] |  | 25.0 | 10.5 | 0.49
CC1(O)CN([C@@H]2COc3ccccc3[C@H]2Nc2ncnc3[nH]c(C(F)(F)F)cc23)C1 (single isomer, unassigned) [EP-0041264] |  | 25.0 | 2.5 | > 25
OC(C1CCOCC1)C1COc2ccccc2C1Nc1ncnc2[nH]c(C(F)(F)F)cc12 (single isomer, unassigned) [EP-0041269] | > 25 | 25.0 | 2.9 | 
OC(C1CCOCC1)C1COc2ccccc2C1Nc1ncnc2[nH]c(C(F)(F)F)cc12 (single isomer, unassigned) [EP-0041270] | 0.86 | 25.0 | 11.6 | 
COC1(C)CN(C2COc3ccccc3C2Nc2ncnc3[nH]c(C(F)(F)F)cc23)C1 (single isomer, unassigned) [EP-0041300] |  | 25.0 | 11.1 | 4.35
FC1COCCC1[C@H]1COc2ccccc2[C@@H]1Nc1ncnc2[nH]c(C(F)(F)F)cc12 (single isomer, unassigned) [EP-0041322] | > 25 | 25.0 | 11.0 | 
FC1COCCC1[C@H]1COc2ccccc2[C@@H]1Nc1ncnc2[nH]c(C(F)(F)F)cc12 (single isomer, unassigned) [EP-0041323] | 11 | 25.0 | 9.2 | 
FC1COCCC1[C@H]1COc2ccccc2[C@@H]1Nc1ncnc2[nH]c(C(F)(F)F)cc12 (single isomer, unassigned) [EP-0041324] | 12.3 | 25.0 | 10.4 | 
FC1COCCC1[C@H]1COc2ccccc2[C@@H]1Nc1ncnc2[nH]c(C(F)(F)F)cc12 (single isomer, unassigned) [EP-0041325] | 18.8 | 25.0 | 5.5 | 
CC(C)(O)C1CN([C@H]2COc3ccccc3[C@@H]2Nc2ncnc3[nH]c(C(F)(F)F)cc23)C1 (single isomer, unassigned) [EP-0041490] |  | 25.0 | 3.4 | > 25
COC[C@@H]1CCCN1[C@H]1COc2ccccc2[C@@H]1Nc1ncnc2[nH]c(C(F)(F)F)cc12 (single isomer, unassigned) [EP-0041491] |  | 25.0 | 3.7 | 10.2
COC[C@H]1CCCN1[C@H]1COc2ccccc2[C@@H]1Nc1ncnc2[nH]c(C(F)(F)F)cc12 (single isomer, unassigned) [EP-0041492] |  | 25.0 | 8.3 | 1.78
